Each structure is given as a SMILES string.

The term CC50 denotes the concentration at which the toxic effect on the cells reaches its halfway point. The low end stands for greater toxicity to the cells, the high end for lower toxicity to the cells. A word on the melting point: it is the temperature of the solid-liquid transition.

One data set deals with rgRSV224 virus. Put plainly: Antiviral activity: inhibition of rgRSV224 (GFP-expressing RSV) replication in HeLa cells, GFP expression read-out. It counts as cell-based, respiratory syncytial virus (RSV). The note with it: human respiratory syncytial virus, HeLa, read-out: RSV HELA pEC50, rgRSV224 virus (MOI=1) in HeLa cells, GFP read-out (converted). The method in brief: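 EC50 is the 50% inhibitory concentration for GFP expression, read by laser microscopy three days after rgRSV224 infection (MOI=1) of HeLa cells (3,000/well). Compounds were tested as 9 serial 4-fold dilutions at 0.05% DMSO, and cells were incubated at 37° C under 5% CO2.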

The nature of data set [1]: Cytotoxicity in HeLa cells, ATP content measured with the ATPlite kit. In kind it is cell-based. The note with it: human, TOX HELA pCC50. In general terms: ATP-based viability assays read luminescence as a measure of living cells.

Compound `CCc1cc(C(=O)N2CCCCCC2C)nc2cc(-c3ccc(C(=O)NCCN(C)C)cc3F)nn12` (stereo not drawn) [Compound L2] returned a melting point of 178 °C. In addition, in the data set on rgRSV224 virus, the EC50 was 550 nM. This compound also showed a CC50 at 3 days in data set [1] greater than 25100 nM.

Compound `CCc1cc(C(=O)N2CCCc3ccccc3C2C)nc2cc(-c3ccc(C(=O)O)cc3F)nn12` (stereo not drawn) [Compound K8] yielded a melting point of 105 to 110 °C. For the same compound, the EC50 in the data set with rgRSV224 virus is 437 nM. This compound had a cytotoxic concentration (CC50) at 3 days in data set [1] greater than 25100 nM.

The compound `C[C@@H]1c2ccccc2CCN1C(=O)c1cc(C2CC2)n2nc(-c3ccc(N4CC[C@H](C(=O)O)C4)cc3F)cc2n1` [Compound W38] registered a melting point of 214 °C. In addition, the EC50 in the data set on rgRSV224 virus is 5.75 nM. The 50% cytotoxic concentration (CC50) at 3 days in data set [1] was 46800 nM.

`CCc1cc(C(=O)N2CCCCCC2C)nc2cc(-c3cc4cccnc4cc3F)nn12` (stereo not drawn) [Compound A24]: the melting point fell in the range of 145 to 150 °C. Also, the EC50 with rgRSV224 virus was 302 nM. In data set [1], the CC50 at 3 days is greater than 25100 nM.

Regarding `C[C@@H]1CCCCCN1C(=O)c1cc(C2CC2)n2nc(-c3ccc(N4CC[C@H](C(=O)O)C4)cc3F)cc2n1` [Compound W51], the melting point is 203.3 °C. Moreover, the EC50 in the data set with rgRSV224 virus was 38.9 nM. The same compound had a CC50 at 3 days in data set [1] of 69200 nM.

On to `CCc1cc(C(=O)N2CCCCCC2C)nc2cc(-c3ccc(N/C(=N/C#N)NC4CC4)cc3F)nn12` (stereo not drawn) [Compound B17], for which the melting point lay within 225 to 230 °C. The EC50 with rgRSV224 virus is 407 nM. The CC50 at 3 days in data set [1] is greater than 25100 nM.

`CC1c2ccccc2CCN1C(=O)c1cc(N(C)C)n2nc(-c3ccc(/C=C/C(=O)O)cc3F)cc2n1` (stereo not drawn) [Compound M10] displayed a melting point of 243 to 245 °C. Also, in the data set on rgRSV224 virus, the EC50 is 47.9 nM. In data set [1], this compound gave a half-maximal cytotoxic concentration (CC50) at 3 days of 20000 nM.

On to `CNc1cc(C(=O)N2CCCCCC2C)nc2cc(-c3ccc(C#N)cc3F)nn12` (stereo not drawn) [Compound H1], for which the melting point fell in the range of 219 to 220 °C. Further, the EC50 with rgRSV224 virus was 562 nM. The compound also came in with a CC50 at 3 days in data set [1] greater than 25100 nM.

In turn, `CCc1cc(C(=O)N2CCCCCC2C)nc2nc(-c3ccc(NC(=O)NCC4CCCO4)cc3F)nn12` (stereo not drawn) [Compound U1] came in with a melting point of 185 to 190 °C. The EC50 in the data set with rgRSV224 virus was 525 nM. Besides, the CC50 at 3 days in data set [1] was greater than 100000 nM.

As for `CCc1cc(C(=O)N2CCc3sccc3C2C)nc2cc(-c3cccc(/C=C/C(=O)O)c3F)nn12` (racemic) [Compound M48], the melting point came out at 255.5 °C. Moreover, the EC50 in the data set with rgRSV224 virus was 12.9 nM. Besides, in data set [1], the CC50 at 3 days is greater than 25100 nM.

The compound `CC1c2ccsc2CCN1C(=O)c1cc(C2CC2)n2nc(-c3ccc(N4CC[C@H](C(=O)O)C4)cc3F)cc2n1` (single isomer, unassigned) [Compound W37] yielded a melting point of 231.1 °C. Moreover, the EC50 with rgRSV224 virus is 5.62 nM. The compound further had a CC50 at 3 days in data set [1] of 45700 nM.

With `CCc1cc(C(=O)N2CCCCC[C@H]2C)nc2cc(-c3ccc(N(C)[C@H]4C[C@@H](C(=O)O)C4)cc3F)nn12` (racemic) [Compound W23], the melting point came to 182.69 °C. The EC50 with rgRSV224 virus was 75.9 nM. The same compound showed a CC50 at 3 days in data set [1] of 79400 nM.

As to `CCc1cc(C(=O)N2CCCCCC2C)nc2cc(-c3ccc4c(c3)CC(=O)N4C)nn12` (stereo not drawn) [Compound A9], the melting point was in the range of 225 to 230 °C. The EC50 in the data set on rgRSV224 virus is 537 nM. Besides, the CC50 at 3 days in data set [1] is greater than 25100 nM.

Compound `CCc1cc(C(=O)N2CCn3cccc3C2C)nc2cc(-c3ccc(C(N)=O)cc3F)nn12` (stereo not drawn) [Compound I35] came in with a melting point of 242 °C. The EC50 in the data set on rgRSV224 virus is 43.7 nM. For the same compound, in data set [1], the cytotoxic concentration (CC50) at 3 days was greater than 25100 nM.

As to `C[C@@H]1CCCCCN1C(=O)c1cc(C2CCC2)n2nc(-c3ccc4cc(C(=O)O)c(=O)oc4c3F)cc2n1` (racemic) [Compound F53], the melting point was determined as 175.52 °C. Moreover, the EC50 with rgRSV224 virus was 36.3 nM. For the same compound, the cytotoxic concentration (CC50) at 3 days in data set [1] is 60300 nM.

On to `CCc1cc(C(=O)N2CCCCCC2C)nc2cc(-c3ccc(CCC(N)=O)cc3F)nn12` (stereo not drawn) [Compound R1], for which the melting point lay within 95 to 100 °C. Also, the EC50 in the data set on rgRSV224 virus was 251 nM. Further, in data set [1], the CC50 at 3 days is greater than 25100 nM.

Values taken from patent US11084826B2, “RSV antiviral pyrazolo- and triazolo-pyrimidine compounds” (Janssen Sciences Ireland Unlimited Company, priority 2015, dated 2021).
